The subject of data set [1] is T98G. As to the kind of experiment: Cytotoxicity against human T98G cells measured after 48 hrs under normoxia condition in presence of CoCl2 by MTT assay. It is filed as functional, cell-based. On the technique in general: Formazan colour is commonly taken as a measure of viable cells.
Data set [2] has as its system ARPE-19. As to the kind of experiment: Cytotoxicity against human ARPE19 cells at 30 to 300 uM measured after 48 hrs under normoxia condition in presence of CoCl2 by MTT assay relative to control. The following applies: arpe-19, 48 h. It is filed as cell-based.
Data set [3] relates to ARPE-19. Description: Cytotoxicity against human ARPE19 cells at 300 uM measured after 48 hrs under normoxia condition in presence of CoCl2 by MTT assay. The note with it: arpe-19, 48 h. It is filed as cell-based.

Each structure is given as a SMILES string.

As to `NS(=O)(=O)c1ccc(N2C(=O)C[C@H](C(=O)NCCCN3CCCC3)[C@H]2c2ccc(Cl)cc2)cc1` (racemic), the Activity entry was “Dose-dependent effect” in data set [1] and 80% in data set [2].
In the case of `CN1CCN(CCCNC(=O)[C@H]2CC(=O)N(c3ccc(S(N)(=O)=O)cc3)[C@@H]2c2ccc(Cl)cc2)CC1` (racemic), the Activity result in data set [1] was “Dose-dependent effect”; in data set [3] it was “Toxic”.
Turning to `CC(=O)OCCNC(=O)[C@H]1CC(=O)N(c2ccc(S(N)(=O)=O)cc2)[C@@H]1c1ccc(Cl)cc1`, the Activity entry in data set [1] was “Dose-dependent effect”; in data set [2], 80%.
`NS(=O)(=O)c1ccc(N2C(=O)C[C@H](C(=O)NCCC(=O)O)[C@H]2c2ccc(Cl)cc2)cc1` (racemic): in data set [1], the Activity entry is “Dose-dependent effect”.
`NS(=O)(=O)c1ccc(N2C(=O)C[C@H](C(=O)NCCCO)[C@H]2c2ccc(Cl)cc2)cc1` (racemic): the Activity entry in data set [1] was “Dose-dependent effect”.
In the case of `NS(=O)(=O)c1ccc(N2C(=O)C[C@H](C(=O)NCCCn3ccnc3)[C@H]2c2ccc(Cl)cc2)cc1` (racemic), the figures for the Activity result in data set [1] and in data set [2] were “Dose-dependent effect” and 80%, respectively.

The values above are taken from ChEMBL document CHEMBL4359910, “From random to rational: A discovery approach to selective subnanomolar inhibitors of human carbonic anhydrase IV based on the Castagnoli-Cushman multicomponent reaction” (Eur J Med Chem, 2019).
